The text below walks through data of PMC2791543 (Cancer cell, 2009).

The target in one assay is αvβ3 integrin (Homo sapiens, UniProt P05106+P06756). Description: ELISA affinity measurement on purified αvβ3 integrin. It is filed as binding. The note with it: compared with iRGD.
The next assay concerns the target αvβ5 integrin (Homo sapiens, UniProt P06756+P18084). Description: ELISA affinity measurement on purified αvβ5 integrin. The format is binding. The note with it: compared with iRGD. In general terms: In an ELISA, binding on a coated surface is turned into a signal by an enzyme label.
Assay [1] relates to de novo pancreatic ductal adenocarcinoma. Description: In vivo peptide homing in PDAC mice. Particulars: FAM-labeled peptide, approximately 200 µg, 2 hrs circulation.
The next assay deals with PPC1 cells. Description: Inhibition of CRGDK phage binding to PPC1 cells. The format is cell-based, human.
The target of another assay is T1, Neuropilin-1 (Rattus norvegicus, UniProt Q9QWJ9).
T1 chain: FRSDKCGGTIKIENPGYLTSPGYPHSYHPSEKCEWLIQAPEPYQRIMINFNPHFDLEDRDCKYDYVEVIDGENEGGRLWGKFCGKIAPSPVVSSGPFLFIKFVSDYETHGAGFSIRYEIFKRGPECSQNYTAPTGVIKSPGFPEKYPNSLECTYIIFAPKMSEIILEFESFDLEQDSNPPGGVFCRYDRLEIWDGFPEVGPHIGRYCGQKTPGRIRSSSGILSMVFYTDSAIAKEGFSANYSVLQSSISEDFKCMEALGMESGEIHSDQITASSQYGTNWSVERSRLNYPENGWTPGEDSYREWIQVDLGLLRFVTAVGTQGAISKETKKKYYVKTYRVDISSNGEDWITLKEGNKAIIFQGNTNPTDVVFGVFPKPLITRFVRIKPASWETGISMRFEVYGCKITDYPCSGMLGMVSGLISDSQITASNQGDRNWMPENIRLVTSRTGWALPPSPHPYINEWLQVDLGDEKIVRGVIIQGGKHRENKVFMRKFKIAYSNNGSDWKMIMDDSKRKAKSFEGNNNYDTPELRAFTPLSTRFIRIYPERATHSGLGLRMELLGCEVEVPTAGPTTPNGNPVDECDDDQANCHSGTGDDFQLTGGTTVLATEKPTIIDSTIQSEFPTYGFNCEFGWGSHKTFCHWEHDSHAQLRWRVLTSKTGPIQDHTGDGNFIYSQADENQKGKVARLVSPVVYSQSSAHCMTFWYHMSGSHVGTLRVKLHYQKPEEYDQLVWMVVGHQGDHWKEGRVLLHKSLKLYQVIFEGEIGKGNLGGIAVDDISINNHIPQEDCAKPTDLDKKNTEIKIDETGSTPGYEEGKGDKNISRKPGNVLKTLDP
Description: competition ELISA.

Chain of αvβ5 integrin (P06756 31-889 limits assumed): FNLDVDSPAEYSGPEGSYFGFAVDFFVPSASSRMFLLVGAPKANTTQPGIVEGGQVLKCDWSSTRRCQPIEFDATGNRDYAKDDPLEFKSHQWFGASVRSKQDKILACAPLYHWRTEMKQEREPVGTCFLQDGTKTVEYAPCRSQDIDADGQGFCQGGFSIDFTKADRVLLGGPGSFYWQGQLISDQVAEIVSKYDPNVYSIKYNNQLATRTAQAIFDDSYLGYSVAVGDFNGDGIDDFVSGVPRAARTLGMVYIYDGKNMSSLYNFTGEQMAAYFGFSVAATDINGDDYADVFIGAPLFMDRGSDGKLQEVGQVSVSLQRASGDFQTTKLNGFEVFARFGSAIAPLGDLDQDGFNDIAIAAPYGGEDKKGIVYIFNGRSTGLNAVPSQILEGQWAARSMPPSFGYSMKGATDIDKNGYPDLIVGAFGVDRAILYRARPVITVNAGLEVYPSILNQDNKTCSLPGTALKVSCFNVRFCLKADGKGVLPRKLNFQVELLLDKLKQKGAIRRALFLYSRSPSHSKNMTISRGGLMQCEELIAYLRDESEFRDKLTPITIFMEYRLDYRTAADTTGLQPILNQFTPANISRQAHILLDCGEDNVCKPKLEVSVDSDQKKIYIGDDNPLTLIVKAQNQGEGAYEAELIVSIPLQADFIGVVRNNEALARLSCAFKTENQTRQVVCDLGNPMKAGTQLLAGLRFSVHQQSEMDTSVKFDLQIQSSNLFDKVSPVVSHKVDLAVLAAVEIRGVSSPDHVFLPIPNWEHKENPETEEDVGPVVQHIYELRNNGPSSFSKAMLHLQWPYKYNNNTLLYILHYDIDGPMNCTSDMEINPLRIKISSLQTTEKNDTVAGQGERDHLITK
Chain of αvβ5 integrin (P06756 891-1048 limits assumed): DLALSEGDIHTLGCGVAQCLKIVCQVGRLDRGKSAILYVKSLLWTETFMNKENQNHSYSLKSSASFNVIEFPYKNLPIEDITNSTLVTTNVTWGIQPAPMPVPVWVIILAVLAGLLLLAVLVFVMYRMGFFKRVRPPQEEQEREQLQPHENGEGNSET
Chain of αvβ5 integrin (P18084 24-799): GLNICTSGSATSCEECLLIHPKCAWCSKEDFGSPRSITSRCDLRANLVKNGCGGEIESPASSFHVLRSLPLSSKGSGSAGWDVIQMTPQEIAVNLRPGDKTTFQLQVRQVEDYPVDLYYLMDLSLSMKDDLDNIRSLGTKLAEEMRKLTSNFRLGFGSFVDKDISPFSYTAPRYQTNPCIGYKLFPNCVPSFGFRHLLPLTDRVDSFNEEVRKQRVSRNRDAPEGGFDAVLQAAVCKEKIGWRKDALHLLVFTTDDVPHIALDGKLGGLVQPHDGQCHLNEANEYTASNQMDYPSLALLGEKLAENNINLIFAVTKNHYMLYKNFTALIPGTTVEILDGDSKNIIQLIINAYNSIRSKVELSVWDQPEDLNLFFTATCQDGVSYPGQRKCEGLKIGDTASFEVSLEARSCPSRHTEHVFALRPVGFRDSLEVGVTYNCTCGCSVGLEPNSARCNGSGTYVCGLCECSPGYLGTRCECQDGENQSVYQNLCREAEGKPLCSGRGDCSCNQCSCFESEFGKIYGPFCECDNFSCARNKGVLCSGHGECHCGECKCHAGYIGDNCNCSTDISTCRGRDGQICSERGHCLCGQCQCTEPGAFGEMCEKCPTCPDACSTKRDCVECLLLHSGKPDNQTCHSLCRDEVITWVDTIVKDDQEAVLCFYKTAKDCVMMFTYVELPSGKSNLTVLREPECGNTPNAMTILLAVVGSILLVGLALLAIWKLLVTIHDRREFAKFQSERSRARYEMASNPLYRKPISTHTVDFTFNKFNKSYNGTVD
Chain of αvβ3 integrin (P06756 31-889 limits assumed): as the sequence (P06756 31-889 limits assumed) above
Chain of αvβ3 integrin (P06756 891-1048 limits assumed): as the sequence (P06756 891-1048 limits assumed) above
Chain of αvβ3 integrin (P05106 27-788): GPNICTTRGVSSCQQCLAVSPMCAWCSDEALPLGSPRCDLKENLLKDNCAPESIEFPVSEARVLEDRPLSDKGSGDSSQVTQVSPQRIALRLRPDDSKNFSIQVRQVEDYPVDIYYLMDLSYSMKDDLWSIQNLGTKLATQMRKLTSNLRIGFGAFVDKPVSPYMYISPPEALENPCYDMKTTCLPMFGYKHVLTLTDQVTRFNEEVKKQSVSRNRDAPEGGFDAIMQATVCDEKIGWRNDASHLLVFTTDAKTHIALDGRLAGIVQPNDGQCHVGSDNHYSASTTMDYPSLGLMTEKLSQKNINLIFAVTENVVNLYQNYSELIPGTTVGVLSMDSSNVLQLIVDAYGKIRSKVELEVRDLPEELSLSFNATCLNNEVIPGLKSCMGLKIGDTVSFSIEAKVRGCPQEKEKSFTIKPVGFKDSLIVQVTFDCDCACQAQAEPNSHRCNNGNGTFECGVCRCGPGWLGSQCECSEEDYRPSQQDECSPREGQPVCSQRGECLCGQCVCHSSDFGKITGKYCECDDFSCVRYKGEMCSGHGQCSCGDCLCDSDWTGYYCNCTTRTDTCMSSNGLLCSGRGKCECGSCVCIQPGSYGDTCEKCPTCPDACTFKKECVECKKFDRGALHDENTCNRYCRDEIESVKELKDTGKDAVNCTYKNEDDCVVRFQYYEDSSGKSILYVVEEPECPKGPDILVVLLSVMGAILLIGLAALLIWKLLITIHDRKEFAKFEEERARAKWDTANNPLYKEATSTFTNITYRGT

CRGDC: the “affinity for αvβ3, by ability to block iRGD binding” value at αvβ3 integrin is recorded as “in the same range”. Moreover, at αvβ5 integrin, the “affinity for αvβ5, by ability to block iRGD binding” value is “in the same range”.

On to CRGEKGPDC [iRGE], for which the “tumor fluorescence after i.v. injection” value in assay [1] is listed as “minimal tumor fluorescence”.

With RPARPAR, in the assay with PPC1 cells, the “inhibition of CRGDK phage binding to PPC1 cells by peptide” value is reported as “inhibited”.

A word on the Kd: it is the equilibrium constant for the complex coming apart. Read a high Kd as lower affinity. In the assay with Neuropilin-1, CRGDK yielded a Kd of 1400 nM.
